Like-named read-outs stand apart in the source and are kept apart here.
Tests used:
[1] = system: FIMMI (Fimbristylis miliacea, globe fringerush); test: In-water applied mixtures, transplanted paddy rice, greenhouse; assay type: in vivo, Fimbristylis miliacea (L.) Vahl; conditions: 19 DAA
Method: (§1) Weed seeds or nutlets of the desired test plant species were planted in puddled soil (mud) prepared by mixing a shredded, non-sterilized mineral soil (50.5 percent silt, 25.5 percent clay, and 24 percent sand, with a pH of about 7.6 and an organic matter content of about 2.9 percent) and water at a 1:1 volumetric ratio. The prepared mud was dispensed in 365 mL aliquots into 16-ounce (oz.) non-perforated plastic pots with a surface area of 86.59 square centimeters (cm^2) leaving a headspace of 3 centimeters (cm) in each pot Mud was allowed to dry overnight prior to planting or transplanting. Rice seeds were planted in Sun Gro MetroMix® 306 planting mixture, which typically has a pH of 6.0 to 6.8 and an organic matter content of about 30 percent, in plastic plug trays. Seedlings at the second or third leaf stage of growth were transplanted into 840 mL of mud contained in 32-oz. non-perforated plastic pots with a surface area of 86.59 cm^2 4 days prior to herbicide application. The paddy was created by filling the headspace of the pots with 2.5 to 3 cm of water. When required to ensure good germination and healthy plants, a fungicide treatment and/or other chemical or physical treatment was applied. The plants were grown for 4-22 days in a greenhouse with an approximate 14 h photoperiod which was maintained at about 29° C during the day and 26° C. during the night. Nutrients were added as Osmocote® (19:6:12, N:P:K+ minor nutrients) at 2 g per 16-oz. pot and 4 g per 32-oz. pot. Water was added on a regular basis to maintain the paddy flood, and supplemental lighting was provided with overhead metal halide 1000-Watt lamps as necessary. The plants were employed for testing when they reached the first through fourth true leaf stage.
(§2) Treatments consisted of the acid or esters of 4-amino-3-chloro-5-fluoro-6-(4-chloro-2-fluoro-3-methoxy-phenyl)pyridine-2-carboxylic acid (compound A) each formulated as an SC (suspension concentrate) and various herbicidal components alone and in combination. Forms of compound A were applied on an acid equivalent basis.
(§3) Other herbicidal components were applied on an active ingredient basis and included photosystem II (PSII)-inhibits propanil formulated as […] bentazon-sodium formulated as Basagran®, and simetryne (technical grade material).
(§4) Treatment requirements for each compound or herbicidal component were calculated based upon the rates being tested, the concentration of active ingredient or acid equivalent in the formulation, an application volume of 2 mL per component per pot, and an application area of 86.59 cm^2 per pot.
(§5) For formulated compounds, a measured amount was placed in an individual 100 or 200 mL glass vial and was dissolved in a volume of 1.25% (v/v) Agri-Dex® crop oil concentrate to obtain application solutions.
For technical grade compounds, a weighed amount was placed in an individual 100 to 200 mL glass vial and was dissolved in a volume of acetone to obtain concentrated stock solutions. […]
(§6) The treated plants and control plants were placed in a greenhouse as described above and water was added as needed to maintain a paddy flood. After approximately 3 weeks the condition of the test plants as compared with that of the untreated plants was determined visually and scored on a scale of 0 to 100 percent where 0 corresponds to no injury or growth inhibition and 100 corresponds to complete kill. […]

[2] = system: ECHCO (Echinochloa colona, junglerice); test: Postemergence foliar-applied mixtures, direct seeded rice, greenhouse; assay type: in vivo, Echinochloa colona (L.) Link; conditions: 450 g ai/ha; 21 DAA
Excerpt: (§7) Seeds or nutlets of the desired test plant species were planted in a soil matrix prepared by mixing a loam or sandy loam soil (e.g., 28.6 percent silt, 18.8 percent clay, and 52.6 percent sand, with a pH of about 5.8 and an organic matter content of about 1.8 percent) and calcareous grit in an 80 to 20 ratio. The soil matrix was contained in plastic pots with a volume of 1 quart and a surface area of 83.6 square centimeters (cm^2). When required to ensure good germination and healthy plants, a fungicide treatment and/or other chemical or physical treatment was applied. The plants were grown for 8-22 days in a greenhouse with an approximate 14 h photoperiod which was maintained at about 29° C. during the day and 26° C. during the night. Nutrients (Peters Excel® 15-5-15 5-Ca 2-Mg and iron chelate) were applied in the irrigation solution as needed and water was added on a regular basis. Supplemental lighting was provided with overhead metal halide 1000-Watt lamps as necessary. The plants were employed for testing when they reached the first through fourth true leaf stage.
(§8) Treatments consisted of the acid or esters of 4-amino-3-chloro-5-fluoro-6-(4-chloro-2-fluoro-3-methoxy-phenyl) pyridine-2-carboxylic acid (Compound A), each formulated as an SC (suspension concentrate), and various herbicidal components alone and in combination. Forms of compound A were applied on an acid equivalent basis.
(§9) Other herbicidal components were applied on an active ingredient basis and included Photosystem II (PSII)-inhibiting herbicides propanil formulated as Stam® M4 EC, bentazon-sodium formulated as Basagran®, atrazine formulated as Atrazine 90 WDG, bromoxynil octanoate ester formulated as Buctril®, simetryne (technical grade material), simazine formulated as Princep® Caliber 90, ioxynil (technical grade material), cyanazine (technical grade material), and hexazinone (technical grade material).
(§10) Treatment requirements were calculated based upon the rates being tested, the concentration of active ingredient or acid equivalent in the formulation, and a 12 mL application volume at a rate of 187 L/ha.
(§11) For treatments comprised of formulated compounds, measured amounts of compounds were placed individually in 25 mL glass vials and diluted in a volume of 1.25% (v/v) Agri-Dex® crop oil concentrated to obtain 12× stock solutions. […] Application solutions were prepared by adding an appropriate amount of each stock solution (e.g., 1 mL) and diluted to the appropriate final concentrations with the addition of 10 mL of an aqueous mixture of 1.25% (v/v) crop oil concentrate so that the final spray solutions contained 1.25+/−0.05% (v/v) crop oil concentrate.
(§12) For treatments comprised of technical compounds, weighed amounts can be placed individually in 25 mL glass vials and dissolved in a volume of 97:3 v/v acetone/DMSO to obtain 12× stock solutions. […] Application solutions can be prepared by adding an appropriate amount of each stock solution (e.g., 1 mL) and diluted to the appropriate final concentrations with the addition of 10 mL of an aqueous mixture of 1.5% (v/v) crop oil concentrate so that the final spray solutions contain 1.25% (v/v) crop oil concentrate. When technical materials are used, the concentrated stock solutions can be added to the spray solutions so that the final acetone and DMSO concentrations of the application solutions are 16.2% and 0.5%, respectively.
(§13) For treatments comprised of formulated and technical compounds, weighed amounts of the technical materials were placed individually in 25 mL glass vials and dissolved in a volume of 97:3 v/v acetone/DMSO to obtain 12× stock solutions, and measured amounts of the formulated compounds were placed individually in 25 mL glass vials and diluted in a volume of 1.5% (v/v) crop oil concentrate or water to obtain 12× stock solutions. […]

[3] = system: LEFCH (Leptochloa chinensis, Chinese sprangletop); test: as above; assay type: in vivo, Leptochloa chinensis (L.) Nees; conditions: 225 g ai/ha; 22 DAA
Excerpt: as §7, with “stage. […]” for “stage.”
as §10
(§14) For treatments comprised of formulated compounds, measured amounts of compounds were placed individually in 25 mL glass vials and diluted in a volume of 1.25% (v/v) Agri-Dex® crop oil concentrated to obtain 12× stock solutions. […]
as §13

[4] = system: ECHOR (Echinochloa oryzoides, early watergrass); test: In-water applied mixtures, transplanted paddy rice, greenhouse; assay type: in vivo, Echinochloa oryzoides (Ard.) Fritsch
Method: as §1, §2, §3, §4, §5
(§15) For technical grade compounds, a weighed amount was placed in an individual 100 to 200 mL glass vial and was dissolved in a volume of acetone to obtain concentrated stock solutions. […] The concentrated stock solutions obtained were diluted with an equivalent volume of an aqueous mixture containing 2.5% (v/v) crop oil concentrate so that the final application solutions contained 1.25% (v/v) crop oil concentrate.
(§16) Applications were made by injecting with a pipetter appropriate amounts of the application solutions, individually and sequentially, into the aqueous layer of the paddy. Control plants were treated in the same manner with the solvent blank. Applications were made so that all treated plant material received the same concentrations of acetone and crop oil concentrate.
as §6

[5] = system: CYPIR (Cyperus iria, rice flatsedge); test: Postemergence foliar-applied mixtures, direct seeded rice, greenhouse; assay type: in vivo, Cyperus iria L.; conditions: 22 DAA
Excerpt: as §7, §8, §9, §10, §11, §12, §13

[6] = system: CYPRO (Cyperus rotundus, purple nutsedge); test: In-water applied mixtures, transplanted paddy rice, greenhouse; assay type: in vivo, Cyperus rotundus L.; conditions: 19 DAA
Method: as §1, §2, §3, §4, §5, §15, §16, §6

[7] = system: LEFCH (Leptochloa chinensis, Chinese sprangletop); test: as above; assay type: in vivo, Leptochloa chinensis (L.) Nees
Method: as §1, §2, §3, §4, §5, §15, §16, §6

[8] = system: ECHCG (Echinochloa crusgalli, barnyardgrass); test: as above; assay type: in vivo, Echinochloa crusgalli (L.) Beauv.; conditions: 21 DAA
Method: as §1, with “stage. […]” for “stage.”
as §4
For formulated compounds, a measured amount was placed in an individual 100 or 200 mL glass vial and was dissolved in a volume of 1.25% (v/v) Agri-Dex® crop oil concentrate to obtain application solutions. […]
as §6

[9] = system: COMBE (Commelina benghalensis, Benghal dayflower); test: Postemergence foliar-applied mixtures, direct seeded rice, greenhouse; assay type: in vivo, Commelina benghalensis L.; conditions: 280 g ai/ha; 20 DAA
Excerpt: as §7, with “stage. […]” for “stage.”
as §10, §14, §13

[10] = system: SCPMA (Schoenoplectus maritimus, sea clubrush); test: In-water applied mixtures, transplanted paddy rice, greenhouse; assay type: in vivo, Schoenoplectus maritimus (L.) Lye; conditions: 1120 g ae/ha; 20 DAA
Method: as §1, §2, §3, §4, §5, §15, §16, §6

[11] = system: IPOHE (Ipomoea hederacea, ivyleaf morningglory); test: Postemergence foliar-applied mixtures, direct seeded rice, greenhouse; assay type: in vivo, Ipomoea hederacea Jacq.; conditions: post-emergence, read-out: Visual Weed Control (%) Obs
Excerpt: as §7, §8, §9, §10, §11, §12, §13

## CCNc1nc(NCC)nc(SC)n1 [Simetryne, N,N′-diethyl-6-(methylthio)-1,3,5-triazine-2,4-diamine, reference compound]
[1]; 112.5 g ai/ha
  Visual Weed Control (%) Obs: 45%
[1]; 225 g ai/ha
  Visual Weed Control (%) Obs: 90%
[2]
  Visual Weed Control (%) Obs: 45%
[3]
  Visual Weed Control (%) Obs: 40%
[4]; 112.5 g ai/ha, 19 DAA
  Visual Weed Control (%) Obs: 0%
[4]; 225 g ai/ha, 19 DAA
  Visual Weed Control (%) Obs: 10%
[5]; 112.5 g ai/ha
  Visual Weed Control (%) Obs: 0%
[5]; 225 g ai/ha
  Visual Weed Control (%) Obs: 0%
[5]; 450 g ai/ha
  Visual Weed Control (%) Obs: 30%
[6]; 112.5 g ai/ha
  Visual Weed Control (%) Obs: 0%
[6]; 225 g ai/ha
  Visual Weed Control (%) Obs: 0%
[6]; 450 g ai/ha
  Visual Weed Control (%) Obs: 0%

## CC(C)N1C(=O)c2ccccc2NS1(=O)=O [Bentazon-sodium, 3-(1-methylethyl)-1H-2,1,3-benzothiadiazin-4(3H)-one 2,2-dioxide, reference compound]
[7]; 420 g ae/ha, 21 DAA
  Visual Weed Control (%) Obs: 0%
[7]; 840 g ae/ha, 21 DAA
  Visual Weed Control (%) Obs: 0%
[7]; 1120 g ae/ha, 20 DAA
  Visual Weed Control (%) Obs: 0%
[8]; 420 g ae/ha
  Visual Weed Control (%) Obs: 0%
[8]; 840 g ae/ha
  Visual Weed Control (%) Obs: 0%
[4]; 1120 g ae/ha, 20 DAA
  Visual Weed Control (%) Obs: 0%
[9]
  Visual Weed Control (%) Obs: 10%
[10]
  Visual Weed Control (%) Obs: 0%
[11]; 480 h, 840 g ae/ha, 20 DAA
  pest or weed control at 840 g/ha: 13%
[11]; 504 h, 105 g ai/ha, 21 DAA
  pest or weed control at 105 g/ha: 0%
[11]; 504 h, 210 g ai/ha, 21 DAA
  pest or weed control at 210 g/ha: 0%
[11]; 504 h, 420 g ai/ha, 21 DAA
  pest or weed control at 420 g/ha: 10%
[11]; 504 h, 840 g ai/ha, 21 DAA
  pest or weed control at 840 g/ha: 13%
